In the supplement of paper PMC10307832:

What was measured:
Assay in all cases: relative viability (nuclei count vs DMSO), 5 days (fraction); higher = more cells survive
RO-3306 + AZD7762 = compound: C1=CC2=C(C=CC(=C2)C=C3C(=O)NC(=NCC4=CC=CS4)S3)N=C1 [RO-3306] + NC(=O)Nc1cc(-c2cccc(F)c2)sc1C(=O)N[C@H]1CCCNC1 [AZD7762] (partner 0.2 µM)
How it was run: (§1)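 Nuclei were stained with Hoechst during a one-step fixation (final 0.05% Triton X-100, 1% formaldehyde, 1 ug/ml Hoechst) carried out 5 days after dosing, then counted on 4× images. The cells, lung cancer lines in 1536-well plates, had been dosed by pin tool the day after seeding with one drug alone or a fixed anchor-drug dose plus five library-drug doses (not always all listed) in √10 steps. Relative viability is the nuclei count in treated wells divided by that in vehicle wells, and each value is the median of duplicate plates.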

RO-3306 + Vorinostat = compound: C1=CC2=C(C=CC(=C2)C=C3C(=O)NC(=NCC4=CC=CS4)S3)N=C1 [RO-3306] + O=C(CCCCCCC(=O)Nc1ccccc1)NO [Vorinostat] (partner 1 µM)
How it was run: as §1

RO-3306 + Crizotinib = compound: C1=CC2=C(C=CC(=C2)C=C3C(=O)NC(=NCC4=CC=CS4)S3)N=C1 [RO-3306] + C[C@@H](Oc1cc(-c2cnn(C3CCNCC3)c2)cnc1N)c1c(Cl)ccc(F)c1Cl [Crizotinib] (partner 1 µM)
How it was run: as §1

RO-3306 + Phenformin = compound: C1=CC2=C(C=CC(=C2)C=C3C(=O)NC(=NCC4=CC=CS4)S3)N=C1 [RO-3306] + N=C(N)NC(=N)NCCc1ccccc1 [Phenformin] (partner 250 µM)
How it was run: as §1

Row | Cell Line | relative viability (RO-3306 + AZD7762; first compound 0.01 µM) | relative viability (RO-3306 + AZD7762; first compound 0.03162 µM) | relative viability (RO-3306 + AZD7762; first compound 0.1 µM) | relative viability (RO-3306 + AZD7762; first compound 0.3162 µM) | relative viability (RO-3306 + AZD7762; first compound 1 µM) | relative viability (RO-3306 + Vorinostat; first compound 0.01 µM) | relative viability (RO-3306 + Vorinostat; first compound 0.03162 µM) | relative viability (RO-3306 + Vorinostat; first compound 0.1 µM) | relative viability (RO-3306 + Vorinostat; first compound 0.3162 µM) | relative viability (RO-3306 + Vorinostat; first compound 1 µM) | relative viability (RO-3306 + Crizotinib; first compound 0.01 µM) | relative viability (RO-3306 + Crizotinib; first compound 0.03162 µM) | relative viability (RO-3306 + Crizotinib; first compound 0.1 µM) | relative viability (RO-3306 + Crizotinib; first compound 0.3162 µM) | relative viability (RO-3306 + Crizotinib; first compound 1 µM) | relative viability (RO-3306 + Phenformin; first compound 0.01 µM) | relative viability (RO-3306 + Phenformin; first compound 0.03162 µM) | relative viability (RO-3306 + Phenformin; first compound 0.1 µM) | relative viability (RO-3306 + Phenformin; first compound 0.3162 µM) | relative viability (RO-3306 + Phenformin; first compound 1 µM)
1 | HCC-366 | 0.242 | 0.215 | 0.254 | 0.347 | 0.417 | 0.454 | 0.279 | 0.25 | 0.378 | 0.308 | 0.566 | 0.611 | 0.486 | 0.603 | 0.522 | 0.644 | 0.547 | 0.65 | 0.613 | 0.63
2 | HCC-827 | 0.234 | 0.18 | 0.216 | 0.197 | 0.196 | 0.946 | 0.7 | 0.881 | 0.789 | 0.859 | 0.95 | 0.866 | 0.943 | 0.903 | 0.972 | 0.406 | 0.308 | 0.407 | 0.381 | 0.408
3 | HOP-62 | 0.695 | 0.469 | 0.466 | 0.567 | 0.451 | 0.615 | 0.44 | 0.486 | 0.611 | 0.638 | 1.2 | 1.09 | 0.973 | 1.05 | 0.891 | 0.694 | 0.405 | 0.777 | 0.714 | 0.659
4 | IA-LM | – | – | – | – | – | 1.09 | 0.519 | 0.973 | 0.947 | 0.749 | 0.905 | – | 0.923 | 1.11 | 0.546 | – | – | – | – | –
5 | NCI-H520 | – | – | – | – | – | 0.779 | 0.589 | 0.676 | 0.693 | 0.664 | 0.877 | 0.423 | 0.772 | 0.825 | 0.748 | 0.562 | 0.422 | 0.425 | 0.491 | 0.588
6 | NCI-H522 | 0.914 | 0.734 | 0.914 | 0.89 | 0.843 | 0.93 | 0.792 | 0.98 | 0.959 | 0.801 | – | – | – | – | – | 0.599 | 0.615 | 0.699 | 0.666 | 0.733
7 | NCI-H661 | – | – | – | – | – | 0.875 | 0.727 | 0.801 | 0.773 | 0.807 | 1.03 | 1.22 | 1.06 | 0.773 | 1.07 | 0.302 | 0.281 | 0.268 | 0.247 | 0.282
8 | NCI-H1299 | – | – | – | – | – | – | – | – | – | – | 1.02 | 0.943 | 0.998 | 0.988 | 0.991 | – | – | – | – | –
9 | NCI-H1395 | 0.44 | 0.42 | 0.374 | 0.374 | 0.427 | 0.738 | 0.649 | 0.579 | 0.689 | 0.629 | – | – | – | – | – | 0.377 | 0.479 | 0.421 | 0.46 | 0.459
10 | NCI-H1563 | – | – | – | – | – | – | – | – | – | – | 0.866 | 0.849 | 0.894 | 0.873 | 0.918 | 0.643 | 0.639 | 0.641 | 0.631 | 0.666
11 | NCI-H1623 | – | – | – | – | – | – | – | – | – | – | – | – | – | – | – | 0.61 | 0.597 | 0.579 | 0.58 | 0.568
12 | NCI-H1648 | 0.809 | – | 0.697 | 0.643 | 0.625 | 0.348 | – | 0.291 | 0.408 | 0.351 | – | – | – | – | – | – | – | – | – | –
13 | NCI-H1650 | – | – | – | – | – | 0.648 | 0.545 | 0.472 | 0.558 | 0.613 | 1.02 | 0.921 | 0.973 | 1.02 | 0.732 | 0.419 | 0.397 | 0.38 | 0.358 | 0.293
14 | NCI-H1703 | 0.137 | 0.102 | 0.125 | – | 0.124 | – | – | – | – | – | 0.951 | 0.418 | 0.719 | 0.91 | 0.568 | – | – | – | – | –
15 | NCI-H1792 | 0.76 | – | 0.657 | 0.709 | 0.661 | – | – | – | – | – | 1.25 | – | 0.989 | 0.985 | 0.529 | 0.196 | – | 0.156 | 0.289 | 0.259
16 | NCI-H1793 | 0.643 | – | 0.484 | 0.277 | 0.532 | 0.985 | – | 0.58 | 0.701 | 0.721 | – | – | – | – | – | 0.346 | 0.347 | 0.397 | 0.366 | 0.315
17 | NCI-H2009 | – | – | – | – | – | 0.797 | 0.739 | 0.677 | 0.81 | 0.712 | 1.05 | 0.976 | 1.02 | 1.07 | 1.04 | 0.52 | 0.455 | 0.49 | 0.483 | 0.494
18 | NCI-H2023 | – | – | – | – | – | 0.684 | 0.524 | 0.651 | 0.806 | 0.5 | 0.644 | 0.6 | 0.612 | 0.593 | 0.621 | 0.459 | 0.38 | 0.398 | 0.403 | 0.356
19 | NCI-H2228 | – | – | – | – | – | 0.648 | 0.737 | 0.615 | 0.612 | 0.368 | 0.471 | 0.335 | 0.408 | 0.445 | 0.541 | 0.286 | 0.211 | 0.276 | 0.32 | 0.241
20 | NCI-H2342 | 0.437 | 0.448 | 0.524 | 0.536 | 0.464 | 0.691 | 0.687 | 0.735 | 0.751 | 0.76 | – | – | – | – | – | 0.591 | 0.519 | 0.527 | 0.569 | 0.586
21 | SK-LU-1 | – | – | – | – | – | 0.854 | 0.711 | 0.786 | 0.786 | 0.605 | 0.991 | 0.84 | 1.03 | 0.935 | 0.716 | 0.461 | 0.426 | 0.503 | 0.484 | 0.453
22 | SK-MES-1 | – | – | – | – | – | 1.35 | 1.12 | 1.12 | 1.32 | 1.08 | 1.1 | 0.867 | 0.969 | 0.991 | 1.07 | 0.73 | 0.605 | 0.711 | 0.621 | 0.625
23 | SW 900 | 0.652 | 0.511 | 0.653 | 0.587 | 0.626 | 0.574 | 0.272 | 0.462 | 0.535 | 0.34 | – | – | – | – | – | 0.636 | 0.539 | 0.506 | 0.465 | 0.502
24 | SW 1573 | – | – | – | – | – | 0.67 | 0.598 | 0.738 | 0.715 | 0.763 | 0.879 | 0.62 | 0.771 | 0.865 | 0.606 | 0.405 | – | 0.363 | 0.341 | 0.351
